{"source": "paper PMC12207360", "about": "“Hyperpolarization Modulation of the T‐Type hCav3.2 Channel by Human Synenkephalin [1–53], a Shrew Neurotoxin Analogue without Paralytic Effects” (Angewandte Chemie (International Ed. in English), 2025)", "key": {"trypsin": {"test_system": "trypsin", "experiment": "Trypsin digestion", "settings": "intact peptide, without disulfide reduction", "experimental": "(§1) To determine the connectivity of disulfide bonds in synthetic 2, enzymatic digestion and subsequent fragment peptide analysis were performed. […] However, due to high proteolytic stability, analysis of these degraded products provided little information on the disulfide bond connectivity in 2. To perform stepwise S‐alkylation with limiting reduction of disulfide bonds,^[ [52], [53] ^] 2 was denatured with 6 M aq. guanidine hydrochloride (GdmCl)/0.1 M aq. citrate, followed by tris(2‐carboxyethyl)phosphine (TCEP) reduction and Michael addition to N‐ethylmaleimide (NEM). As a result, we obtained six kinds of S‐alkylated products (2SS‐a/b/c and 1SS‐a/b/c) with one or two disulfide bonds cleaved, respectively, along with unreacted 2 (3SS) and a fully S‐alkylated product (0SS) (Scheme 1a and Figure S4a). HPLC‐purified 1SS‐a (3) and 1SS‐b (4), which have different patterns of four Cys(S‐Nem) residues, were then reduced with DTT and alkylated with iodoacetamide."}, "several enzymes": {"test_system": "several enzymes", "experiment": "Susceptibility to several enzymes / degradation", "settings": "intact hSYN; compared with paralytic effect of BPP2 on mealworms", "experimental": "as §1"}, "[1]": {"test_system": "glutamyl endopeptidase (Glu-C)", "experiment": "Glutamyl endopeptidase (Glu-C) digestion", "settings": "intact peptide, without disulfide reduction", "experimental": "as §1"}, "[2]": {"test_system": "mealworms (larva of Zophobas atratus)", "experiment": "Mealworm paralysis bioassay, i.p. injection", "type": "in vivo", "settings": "for Paralyzed/total numbers: 100 µL per 1 g bodyweight, immediate lower-body paralysis", "experimental": "Paralytic activity against mealworms was examined by using synthetic 2 dissolved in saline with mealworms (larva of Zophobas atratus, body weight: 0.7–1.0 g), as described previously.28 Synthetic hSYN was injected into the abdomen of mealworms and observed immediate lower-body paralysis (injection volume: 100 μL per 1.0 g mealworm bodyweight).\nPhosphate buffered saline (PBS) was used as a control. […]\nHEPES. The patch pipettes were ﬁlled with solution containing 130 mM CsCl, 10 mM EGTA, 3 mM Mg–AT P, a n d 0 . 4 m M […]\n(§2) Circular dichroism spectrometry and stereostructure prediction of hSYN. […]\n(§3) In brief, synthetic hSYN [1–53] (2) was dissolved in 50 mM KHPO4, pH 7.0 (ﬁnal concentration: 20 μM) in a 1 mm pathlength cell. The spectrum consisted of ﬁve scans acquired with a scan rate of 20 nm/min and a digital integration time of 2 sec. […]\n(§4) Schrödinger, LLC) was used for calculation of surface charge and final image processing which suitable for scientific"}, "[3]": {"test_system": "human T-type voltage-gated calcium channel (hCav3.2)", "experiment": "Whole-cell patch-clamp of voltage-gated Ca2+ currents in HEK293T cells expressing hCav3.2", "type": "cell-based", "settings": "0.74 µM, n = 5", "experimental": "Normalized conductance (G/G max) was generated for both data sets, fit to a Boltzmann equation, and is shown as data ± S.E.M. (n = 5). Statistical analyses were performed using Dunnett's multiple comparison tests. ^* p < 0.05 versus control. […]\nElectrophysiological assays were done on human Cav3.2 channel, which was expressed on human embryonic kidney 293T (HEK293T) cells using Lipophectamine® 3000 transfection reagent. A pcDNA3 plasmid construct containing the complete sequence coding the human α1H-subunit of the Cav3.2 channel flanked by a green fluorescent protein was kindly provided by Prof. Edward Perez–Reyes (University of Virginia, Charlottesville, Virginia, USA).S1 Vo l t a g e-gated Ca2+ currents were recorded by the whole-cell patch-clamp technique, as previously described.28,S2 This recording was performed in the whole-cell conﬁguration using an Axopatch 200B Ampliﬁer (Axon CNS, Molecular Devices) at a holding potential of –90 mV. Cells were depolarized from the –90 mV holding potential to +80 mV with +10 mV voltage steps of 200 ms. The current amplitude was measured at the peak. The current density was determined with the cell capacitance to establish the density-voltage curves.\nThe currents were ﬁltered at 2 kHz and sampled at 5 kHz using an A/D converter, the Digidata 1440A (Axon CNS, Molecular Devices). The leak was subtracted automatically by a P/4 protocol (pclamp10, Axon CNS, Molecular Devices). For the recording Ca2+ currents, the bath solution contained 125 mM N-methyl-D-glucamine, 5 mM 4-aminopyridine, 20 mM tetraethylammonium chloride, 2 mM CaCl2, 2 mM MgCl2, and 10 mM D-glucose and was buffered to pH 7.4 with 10 mM HEPES. The patch pipettes were ﬁlled with solution containing 130 mM CsCl, 10 mM EGTA, 3 mM Mg–AT P, a n d 0 . 4 m M Li–GTP with the pH adjusted to 7.2 by 25 mM HEPES. Statistical analyses were performed using Dunnett’s multiple comparison tests. *, p < 0.05 versus control.\nas §2, §3, §4"}}, "note": "Where no end group is shown, it is not given here."}
{"substance": "human synenkephalin [1–53] (ECSQDCATCSYRLVRPADINFLACVMECEGKLPSLKIWETCKELLQLSKPELP; disulfide (positions not given here); also: Type II disulfides, places not given here; UniProt P01210 25-77, looked up, fragment) [compound 2, human synenkephalin N-terminal part [1–53], three disulfide bonds Cys(I)–Cys(V), Cys(II)–Cys(IV), Cys(III)–Cys(VI)]", "values": [{"measurement": "proteolytic stability toward trypsin", "setting": "trypsin", "value": "partially digested"}, {"measurement": "enzymatic degradation", "setting": "several enzymes", "value": "susceptible to several enzymes, its degradation was much slower than the paralytic effect of BPP2 on mealworms"}, {"measurement": "proteolytic stability toward Glu-C", "setting": "[1]", "value": "partially digested"}, {"measurement": "Paralyzed/total numbers", "setting": "[2]; 5.0 µg/g bodyweight", "value": "0/4"}, {"measurement": "Paralyzed/total numbers", "setting": "[2]; 15 µg/g bodyweight", "value": "0/3"}, {"measurement": "Paralyzed/total numbers", "setting": "[2]; 50 µg/g bodyweight", "value": "0/4"}, {"measurement": "paralytic effect on mealworms", "setting": "[2]; even at 50 µg g−1 body weight", "value": "no paralytic effects on mealworms"}, {"measurement": "lowest current density peak", "setting": "[3]; at −30 mV (control ca. −59 pA/pF at −10 mV)", "value": "ca. −42 pA/pF"}, {"measurement": "voltage of lowest current density peak", "setting": "[3]; control peak at −10 mV", "value": "−30", "unit": "mV"}, {"measurement": "current density at 0 to +20 mV", "setting": "[3]; suggesting a block at higher membrane depolarization", "value": "significantly reduced"}, {"measurement": "hyperpolarization shift of hCav3.2 activation", "setting": "[3]; whole-cell patch clamp, HEK293T cells, holding potential –90 mV, pH 7.4, Boltzmann fit, ± S.E.M., p < 0.05 versus control", "value": "−15", "unit": "mV"}]}
